The results in this text go back to the supplement of paper PMC10307832.

What all share (test): relative viability (nuclei count vs DMSO), 5 days (fraction); higher = more cells survive
Compound in test [1]: C1=CC=C(C(=C1)C2=CC=C(C=C2)C3=CSC4=C3C(=C(C(=O)N4)C#N)O)O + COc1cccc2cc(-c3nc([C@H]4CC[C@H](C(=O)O)CC4)n4ncnc(N)c34)[nH]c12 [OSI-027] (partner 0.5 µM)
The gist of the method: (§1)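 Lung cancer cell lines in 1536-well plates were dosed by pin tool the day after seeding, either with one drug alone or with a fixed anchor-drug dose plus five library-drug doses (not always all listed) in √10 steps. After 5 days, cells were fixed and their nuclei stained in one step (final 0.05% Triton X-100, 1% formaldehyde, 1 ug/ml Hoechst), then counted on 4× images. Relative viability is the nuclei count in treated wells divided by that in vehicle wells. Values are medians of duplicate plates.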

Compound in test [2]: C1=CC=C(C(=C1)C2=CC=C(C=C2)C3=CSC4=C3C(=C(C(=O)N4)C#N)O)O + Nc1ncn([C@H]2C[C@H](O)[C@@H](CO)O2)c(=O)n1 [Decitabine] (partner 2 µM)
In short, it runs like this:
as §1

Compound in test [3]: CC1=CN2C(=O)C=C(N=C2C(=C1)C(C)NC3=CC=CC=C3)N4CCOCC4 [TGX 221] + Nc1ncn([C@H]2C[C@H](O)[C@@H](CO)O2)c(=O)n1 [Decitabine] (partner 2 µM)
In short, it runs like this:
as §1

Compound in test [4]: O=C(CCCCCCNC(=O)c1cnc(N(c2ccccc2)c2ccccc2)nc1)NO [Ricolinostat] + COc1cc2c(Oc3ccc(NC(=O)C4(C(=O)Nc5ccc(F)cc5)CC4)cc3F)ccnc2cc1OCCCN1CCOCC1 [Foretinib] (partner 0.25 µM)
In short, it runs like this: as §1

NCI-H727: the relative viability in test [1] (first compound 0.08 µM) was determined as 0.474; in test [1] (first compound 0.253 µM), 0.671; in test [1] (first compound 0.8 µM), 0.668; in test [1] (first compound 2.53 µM), 0.519; in test [1] (first compound 8 µM), 0.52; in test [2] (first compound 0.08 µM), 0.815. The relative viability in test [2] (first compound 0.253 µM) worked out at 0.932; in test [2] (first compound 0.8 µM), 0.79; in test [2] (first compound 2.53 µM), 0.843; in test [2] (first compound 8 µM), 0.81; in test [3] (first compound 0.08 µM) it was 0.826; in test [3] (first compound 0.253 µM) it was 0.822. Further, the relative viability in test [3] (first compound 0.8 µM) was 0.796; in test [3] (first compound 2.53 µM), 0.864; in test [3] (first compound 8 µM) it was 0.915; in test [4] (first compound 0.08 µM) it was 0.746; in test [4] (first compound 0.253 µM), 0.741; in test [4] (first compound 0.8 µM), 0.948. For the same cell line, the relative viability in test [4] (first compound 2.53 µM) stood at 0.884.

As for NCI-H2170, the relative viability stood at 0.76 in test [1] (first compound 0.08 µM); 0.74 in test [1] (first compound 0.253 µM); 0.676 in test [1] (first compound 0.8 µM); 0.677 in test [1] (first compound 2.53 µM); 0.754 in test [1] (first compound 8 µM); 0.551 in test [2] (first compound 0.08 µM). In addition, the relative viability in test [2] (first compound 0.253 µM) turned out to be 0.467; in test [2] (first compound 0.8 µM), 0.467; in test [2] (first compound 2.53 µM), 0.454; in test [2] (first compound 8 µM), 0.446; in test [3] (first compound 0.08 µM) it was 0.403; in test [3] (first compound 0.253 µM), 0.464. Also, the relative viability worked out at 0.441 in test [3] (first compound 0.8 µM); 0.438 in test [3] (first compound 2.53 µM); 0.495 in test [3] (first compound 8 µM); 0.915 in test [4] (first compound 0.08 µM); 0.973 in test [4] (first compound 0.253 µM); 0.983 in test [4] (first compound 0.8 µM). In test [4] (first compound 2.53 µM), the relative viability worked out at 1.01.

Turning to 201T, the relative viability in test [1] (first compound 0.08 µM) worked out at 0.709; in test [1] (first compound 0.253 µM), 0.665; in test [1] (first compound 0.8 µM) it was 0.795; in test [1] (first compound 2.53 µM), 0.699; in test [1] (first compound 8 µM) it was 0.531; in test [2] (first compound 0.08 µM), 0.844. Further, the relative viability was 0.826 in test [2] (first compound 0.253 µM); 0.875 in test [2] (first compound 0.8 µM); 0.894 in test [2] (first compound 2.53 µM); 0.916 in test [2] (first compound 8 µM); 0.831 in test [3] (first compound 0.08 µM); 0.85 in test [3] (first compound 0.253 µM). For the same cell line, the relative viability in test [3] (first compound 0.8 µM) came out at 0.844; in test [3] (first compound 2.53 µM) it was 0.871; in test [3] (first compound 8 µM), 0.873; in test [4] (first compound 0.253 µM), 1.09; in test [4] (first compound 0.8 µM), 1.14; in test [4] (first compound 2.53 µM), 1.08.

As to NCI-H838, the relative viability in test [1] (first compound 0.08 µM) was found to be 0.379; in test [1] (first compound 0.253 µM), 0.394; in test [1] (first compound 0.8 µM), 0.388; in test [1] (first compound 2.53 µM), 0.342; in test [1] (first compound 8 µM), 0.354; in test [2] (first compound 0.08 µM) it was 0.456. Further, the relative viability came out at 0.5 in test [2] (first compound 0.253 µM); 0.483 in test [2] (first compound 0.8 µM); 0.457 in test [2] (first compound 2.53 µM); 0.417 in test [2] (first compound 8 µM); 0.443 in test [3] (first compound 0.08 µM); 0.448 in test [3] (first compound 0.253 µM). Further, the relative viability was 0.462 in test [3] (first compound 0.8 µM); 0.447 in test [3] (first compound 2.53 µM); 0.452 in test [3] (first compound 8 µM); 0.9 in test [4] (first compound 0.08 µM); 1.07 in test [4] (first compound 0.253 µM); 1.06 in test [4] (first compound 0.8 µM). The relative viability in test [4] (first compound 2.53 µM) came out at 0.941.

On to NCI-H1915, for which the relative viability in test [1] (first compound 0.08 µM) is 0.645; in test [1] (first compound 0.253 µM), 0.622; in test [1] (first compound 2.53 µM) it was 0.657; in test [1] (first compound 8 µM), 0.534; in test [2] (first compound 0.08 µM) it was 0.263; in test [2] (first compound 0.253 µM), 0.269. Moreover, the relative viability in test [2] (first compound 0.8 µM) was 0.251; in test [2] (first compound 2.53 µM), 0.252; in test [2] (first compound 8 µM) it was 0.262; in test [3] (first compound 0.08 µM) it was 0.254; in test [3] (first compound 0.253 µM) it was 0.255; in test [3] (first compound 0.8 µM) it was 0.256. For the same cell line, the relative viability turned out to be 0.257 in test [3] (first compound 2.53 µM); 0.257 in test [3] (first compound 8 µM); 1.07 in test [4] (first compound 0.08 µM); 1.03 in test [4] (first compound 0.253 µM); 1.07 in test [4] (first compound 0.8 µM); 1.03 in test [4] (first compound 2.53 µM).

LCLC-103H: the relative viability worked out at 0.372 in test [1] (first compound 0.08 µM); 0.39 in test [1] (first compound 0.253 µM); 0.519 in test [1] (first compound 0.8 µM); 0.469 in test [1] (first compound 2.53 µM); 0.434 in test [1] (first compound 8 µM); 0.799 in test [2] (first compound 0.08 µM). For the same cell line, the relative viability in test [2] (first compound 0.253 µM) stood at 0.734; in test [2] (first compound 0.8 µM) it was 0.695; in test [2] (first compound 2.53 µM), 0.697; in test [2] (first compound 8 µM), 0.79; in test [3] (first compound 0.08 µM), 0.777; in test [3] (first compound 0.253 µM), 0.704. Also, the relative viability is 0.677 in test [3] (first compound 0.8 µM); 0.725 in test [3] (first compound 2.53 µM); 0.754 in test [3] (first compound 8 µM); 0.688 in test [4] (first compound 0.08 µM); 0.798 in test [4] (first compound 0.253 µM); 0.787 in test [4] (first compound 0.8 µM). The relative viability in test [4] (first compound 2.53 µM) was found to be 0.748.

In the case of SK-LU-1, the relative viability turned out to be 0.342 in test [1] (first compound 0.08 µM); 0.369 in test [1] (first compound 0.253 µM); 0.276 in test [1] (first compound 0.8 µM); 0.397 in test [1] (first compound 2.53 µM); 0.3 in test [1] (first compound 8 µM); 0.506 in test [2] (first compound 0.08 µM). In addition, the relative viability was found to be 0.572 in test [2] (first compound 0.253 µM); 0.593 in test [2] (first compound 0.8 µM); 0.575 in test [2] (first compound 2.53 µM); 0.497 in test [2] (first compound 8 µM); 0.612 in test [3] (first compound 0.08 µM); 0.626 in test [3] (first compound 0.253 µM). The relative viability in test [3] (first compound 0.8 µM) stood at 0.522; in test [3] (first compound 2.53 µM), 0.588; in test [3] (first compound 8 µM), 0.626; in test [4] (first compound 0.08 µM), 0.739; in test [4] (first compound 0.253 µM), 0.908; in test [4] (first compound 0.8 µM), 0.772. Moreover, the relative viability in test [4] (first compound 2.53 µM) is 0.722.

Consider NCI-H2347, for which the relative viability in test [1] (first compound 0.08 µM) was found to be 0.454; in test [1] (first compound 0.253 µM) it was 0.572; in test [1] (first compound 0.8 µM), 0.348; in test [1] (first compound 2.53 µM) it was 0.419; in test [1] (first compound 8 µM), 0.378; in test [2] (first compound 0.08 µM) it was 0.629. Moreover, the relative viability in test [2] (first compound 0.253 µM) is 0.605; in test [2] (first compound 0.8 µM), 0.578; in test [2] (first compound 2.53 µM), 0.675; in test [2] (first compound 8 µM), 0.566; in test [3] (first compound 0.08 µM), 0.564; in test [3] (first compound 0.253 µM), 0.504. Further, the relative viability is 0.582 in test [3] (first compound 0.8 µM); 0.558 in test [3] (first compound 2.53 µM); 0.597 in test [3] (first compound 8 µM); 1.04 in test [4] (first compound 0.253 µM); 0.792 in test [4] (first compound 0.8 µM); 0.802 in test [4] (first compound 2.53 µM).
